In ChEMBL document CHEMBL1150972, “Biochemical and cellular effects of c-Src kinase-selective pyrido[2, 3-d]pyrimidine tyrosine kinase inhibitors” (Biochem Pharmacol, 2000):

Assays:
NIH3T3 = assay: Inhibition of 3H-thymidine incorporation into NIH3T3 cells; format: functional, cell-based; details: Mus musculus
SW-620 [1] = assay: Inhibition of SW-620 clonogenic growth in soft agar with pretreatment; format: functional, cell-based; details: Homo sapiens
Homo sapiens [2] = species on record: Homo sapiens; assay: Selectivity for c-Src compared to bFGFR
Homo sapiens [3] = species on record: Homo sapiens; assay: Selectivity for c-Src compared to PDGFR
SW-620 [4] = assay: Inhibition of SW-620 clonogenic growth in soft agar without pretreatment; format: functional, cell-based; details: Homo sapiens
HT-29 [5] = assay: Inhibition of HT-29 cell proliferation; format: functional, cell-based; details: Homo sapiens
HT-29 [6] = assay: Inhibition of HT-29 clonogenic growth in soft agar without pretreatment; format: functional, cell-based; details: Homo sapiens
HCT-8 [7] = assay: Inhibition of HCT-8 cell proliferation; format: functional, cell-based; details: Homo sapiens
[8] = molecular target: Fibroblast growth factor receptor 1 (Homo sapiens, UniProt P11362); assay: Inhibition of bFGFR
SW-620 [9] = assay: Inhibition of SW-620 cell proliferation; format: functional, cell-based; details: Homo sapiens
[10] = molecular target: Platelet-derived growth factor receptor (Homo sapiens, UniProt P09619+P16234); assay: Inhibition of PDGFR; format: protein-complex assay
A-431 = assay: Inhibition of 3H-thymidine incorporation into A-431 cells; format: functional, cell-based; details: Homo sapiens
[11] = molecular target: Tyrosine-protein kinase Lck (Homo sapiens, UniProt P06239); assay: Inhibition of Lck
HCT-8 [12] = assay: Inhibition of HCT-8 clonogenic growth in soft agar with pretreatment; format: functional, cell-based; details: Homo sapiens
HCT-8 [13] = assay: Inhibition of HCT-8 clonogenic growth in soft agar without pretreatment; format: functional, cell-based; details: Homo sapiens
HT-29 [14] = assay: Inhibition of HT-29 clonogenic growth in soft agar with pretreatment; format: functional, cell-based; details: Homo sapiens
[15] = molecular target: Proto-oncogene tyrosine-protein kinase Src (Homo sapiens, UniProt P12931); assay: Inhibition of c-Src
[16] = molecular target: Epidermal growth factor receptor (Homo sapiens, UniProt P00533)
Chain of Epidermal growth factor receptor (P00533 whole entry): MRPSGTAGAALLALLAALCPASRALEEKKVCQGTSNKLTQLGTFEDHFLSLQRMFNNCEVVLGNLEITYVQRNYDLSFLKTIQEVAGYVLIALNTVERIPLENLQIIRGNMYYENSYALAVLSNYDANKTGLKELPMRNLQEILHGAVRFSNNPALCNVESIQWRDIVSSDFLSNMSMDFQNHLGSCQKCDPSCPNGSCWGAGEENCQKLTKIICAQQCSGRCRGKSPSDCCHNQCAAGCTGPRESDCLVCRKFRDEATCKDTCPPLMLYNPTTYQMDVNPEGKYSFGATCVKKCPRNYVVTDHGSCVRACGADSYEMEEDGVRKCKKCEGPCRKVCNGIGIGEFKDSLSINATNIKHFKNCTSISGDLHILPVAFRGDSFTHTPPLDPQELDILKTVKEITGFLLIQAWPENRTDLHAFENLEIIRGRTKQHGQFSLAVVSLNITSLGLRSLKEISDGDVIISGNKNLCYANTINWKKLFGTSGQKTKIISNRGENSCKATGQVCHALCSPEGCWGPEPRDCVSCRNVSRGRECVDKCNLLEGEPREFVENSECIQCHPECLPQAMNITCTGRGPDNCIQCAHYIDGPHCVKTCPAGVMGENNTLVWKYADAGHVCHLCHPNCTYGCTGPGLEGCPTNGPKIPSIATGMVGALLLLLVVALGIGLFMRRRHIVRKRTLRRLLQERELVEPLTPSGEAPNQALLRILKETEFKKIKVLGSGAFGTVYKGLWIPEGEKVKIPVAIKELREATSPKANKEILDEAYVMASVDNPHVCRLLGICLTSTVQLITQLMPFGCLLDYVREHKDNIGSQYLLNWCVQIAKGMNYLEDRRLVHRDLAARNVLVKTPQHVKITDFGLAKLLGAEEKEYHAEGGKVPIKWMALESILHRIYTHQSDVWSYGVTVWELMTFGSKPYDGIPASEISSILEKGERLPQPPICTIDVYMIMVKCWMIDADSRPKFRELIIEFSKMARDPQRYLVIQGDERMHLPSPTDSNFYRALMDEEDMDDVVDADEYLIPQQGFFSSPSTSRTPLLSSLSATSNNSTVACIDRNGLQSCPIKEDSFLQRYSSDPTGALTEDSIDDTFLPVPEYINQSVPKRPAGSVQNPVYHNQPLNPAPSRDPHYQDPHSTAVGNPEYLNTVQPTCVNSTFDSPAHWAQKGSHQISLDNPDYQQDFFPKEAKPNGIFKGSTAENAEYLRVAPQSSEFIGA

Chain of Tyrosine-protein kinase Lck (P06239 whole entry): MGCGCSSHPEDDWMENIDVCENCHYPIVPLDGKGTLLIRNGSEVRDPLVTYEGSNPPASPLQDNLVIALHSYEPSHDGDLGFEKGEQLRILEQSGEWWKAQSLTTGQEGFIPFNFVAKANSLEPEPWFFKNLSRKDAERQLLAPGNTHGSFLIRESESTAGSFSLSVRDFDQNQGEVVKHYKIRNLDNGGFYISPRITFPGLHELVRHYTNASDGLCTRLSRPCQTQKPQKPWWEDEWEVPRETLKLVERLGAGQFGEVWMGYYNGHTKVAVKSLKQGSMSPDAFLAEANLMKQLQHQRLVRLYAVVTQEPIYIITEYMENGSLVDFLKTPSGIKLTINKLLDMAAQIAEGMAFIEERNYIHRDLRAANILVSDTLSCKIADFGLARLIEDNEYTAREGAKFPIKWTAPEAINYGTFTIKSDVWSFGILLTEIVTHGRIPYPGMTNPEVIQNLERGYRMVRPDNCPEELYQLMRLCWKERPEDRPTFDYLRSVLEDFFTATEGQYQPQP
Chain of Fibroblast growth factor receptor 1 (P11362 whole entry): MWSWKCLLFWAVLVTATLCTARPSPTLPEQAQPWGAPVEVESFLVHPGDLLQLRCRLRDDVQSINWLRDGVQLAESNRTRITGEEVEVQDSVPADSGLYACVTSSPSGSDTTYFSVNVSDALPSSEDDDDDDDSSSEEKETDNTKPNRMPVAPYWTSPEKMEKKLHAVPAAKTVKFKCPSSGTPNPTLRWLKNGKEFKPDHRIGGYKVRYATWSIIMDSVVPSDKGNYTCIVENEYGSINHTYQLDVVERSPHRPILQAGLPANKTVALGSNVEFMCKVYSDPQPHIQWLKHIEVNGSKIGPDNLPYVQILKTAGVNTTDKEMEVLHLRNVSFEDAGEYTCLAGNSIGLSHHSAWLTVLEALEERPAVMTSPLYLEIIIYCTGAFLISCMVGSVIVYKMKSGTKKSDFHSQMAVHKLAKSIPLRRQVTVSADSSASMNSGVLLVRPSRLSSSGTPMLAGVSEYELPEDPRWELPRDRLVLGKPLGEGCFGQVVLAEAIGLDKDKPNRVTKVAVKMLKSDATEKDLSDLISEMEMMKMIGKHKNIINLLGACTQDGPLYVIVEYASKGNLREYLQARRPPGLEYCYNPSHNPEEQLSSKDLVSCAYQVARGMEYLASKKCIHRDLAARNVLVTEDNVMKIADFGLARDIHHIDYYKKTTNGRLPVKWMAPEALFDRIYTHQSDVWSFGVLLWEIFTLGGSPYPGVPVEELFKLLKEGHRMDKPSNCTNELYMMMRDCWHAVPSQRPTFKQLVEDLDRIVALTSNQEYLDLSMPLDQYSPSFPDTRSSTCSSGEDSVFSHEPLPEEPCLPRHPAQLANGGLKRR
Chain of Proto-oncogene tyrosine-protein kinase Src (P12931 2-536 limits assumed): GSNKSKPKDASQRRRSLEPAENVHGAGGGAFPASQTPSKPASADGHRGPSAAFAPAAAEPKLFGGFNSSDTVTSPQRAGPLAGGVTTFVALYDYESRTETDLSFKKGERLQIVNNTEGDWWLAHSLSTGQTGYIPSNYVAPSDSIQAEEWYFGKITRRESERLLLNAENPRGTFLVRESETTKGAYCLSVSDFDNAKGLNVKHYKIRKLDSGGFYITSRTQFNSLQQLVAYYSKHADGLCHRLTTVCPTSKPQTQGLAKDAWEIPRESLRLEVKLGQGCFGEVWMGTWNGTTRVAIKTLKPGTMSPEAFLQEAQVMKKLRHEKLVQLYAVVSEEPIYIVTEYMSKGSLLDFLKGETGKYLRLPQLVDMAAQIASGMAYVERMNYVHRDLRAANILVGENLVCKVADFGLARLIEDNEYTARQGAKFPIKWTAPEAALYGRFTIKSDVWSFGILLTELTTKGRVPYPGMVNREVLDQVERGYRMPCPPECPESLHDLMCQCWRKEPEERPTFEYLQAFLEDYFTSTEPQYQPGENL

| SMILES | IC50 (NIH3T3) [nM] | IC50 (SW-620 [1]) [nM] | Ratio (Homo sapiens [2]) | Ratio (Homo sapiens [3]) | IC50 (SW-620 [4]) [nM] | IC50 (HT-29 [5]) [nM] | IC50 (HT-29 [6]) [nM] | IC50 (HCT-8 [7]) [nM] | IC50 [8] [nM] | IC50 (SW-620 [9]) [nM] | IC50 [10] [nM] | IC50 (A-431) [nM] | IC50 [11] [nM] | IC50 (HCT-8 [12]) [nM] | IC50 (HCT-8 [13]) [nM] | IC50 (HT-29 [14]) [nM] | IC50 [15] [nM] | IC50 [16] [nM] |
| --- | --- | --- | --- | --- | --- | --- | --- | --- | --- | --- | --- | --- | --- | --- | --- | --- | --- | --- |
| CCOc1ccc(Nc2ncc3cc(-c4c(Cl)cccc4Cl)c(=O)n(C)c3n2)cc1 | 382 | 460 | 27.7 | 144 | 360 | 579 | 1010 | 1150 | 451 | 660 | 2340 | 445 | < 5 | 3220 | 1260 | 750 | 16.3 |  |
| CCN(CCOc1ccc(Nc2ncc3cc(-c4c(Cl)cccc4Cl)c(=O)n(C)c3n2)cc1)C(C)=O |  |  | 27 | 51.2 |  | 266 | < 5000 | 1000 | 244 | 156 | 463 |  | < 5 | > 5000 | > 5000 | 1740 | 9.03 |  |
| Cn1c(=O)c(-c2c(Cl)cccc2Cl)cc2cnc(Nc3ccc(F)cc3)nc21 |  | 1550 |  |  | 402 | 617 | 1540 | 662 |  | 619 |  |  | < 5 |  | 1150 | 1530 |  |  |
| CSc1cccc(Nc2ncc3cc(-c4c(Cl)cccc4Cl)c(=O)n(C)c3n2)c1 |  | 1130 |  |  | 980 | 810 | 1290 | 1130 | 1250 | 924 |  |  | < 5 | 2520 | 1300 | 1210 |  |  |
| Cn1c(=O)c(-c2c(Cl)cccc2Cl)cc2cnc(Nc3ccc(N4CCOCC4)cc3)nc21 | 170 | 530 | 11.8 | 76.2 | 470 |  | 1370 |  | 98.8 |  | 636 | 245 | < 5 | 1380 | 1260 | 1210 | 8.35 |  |
| Cc1cc(Nc2ncc3cc(-c4c(Cl)cccc4Cl)c(=O)n(C)c3n2)ccc1F | 170 |  | 55.6 | 84.9 |  | 461 | 1520 | 450 | 934 | 285 | 1430 | 215 | < 5 | 610 | 260 | 464 | 16.8 | 390 |
